This is an account of results in US7402696B2, “Benzene compounds” (Ajinomoto Co., Inc., priority 2004, dated 2008).

Read-outs that look alike come from different tables or passages of the source.

This experiment addresses T1, ACC (acetyl CoA carboxylase) purified from liver of male SD rat (Rattus norvegicus, UniProt P11497).
T1 construct: applied to a monomeric avidin sepharose column, and washed with buffer B. The ACC was eluted with buffer B containing 2 mM d-biotin; from tissue; host or cells: liver of male SD rat
Briefly: Measurement of ACC inhibition activity ([14C]-NaHCO3 incorporation). The class given is biochemical. The note with it: read-out: ACC Inhibition (%). As to the method:
A male SD rat was deprived of food for two days and then fed a high-sucrose diet (component) for two days. While anesthetized with ether, the descending vena cava was cut upon, the animal was bled, and the liver was rapidly recovered. In an ice-cooled buffer solution A (225 mM mannitol, 75 mM sucrose, 10 mM Tris-HCl (pH 7.5), 0.05 mM EDTA, 5 mM potassium citrate, 2.5 mM MgCl2, 10 mg/L pepstatin A, 10 mg/L leupeptin, 1 mM PMSF), the liver was homogenized with a polytone homogenizer. A quantity of buffer A nine times the weight of the liver was added, the mixture was centrifuged for 10 minutes at 1,000 g, the supernatant was recovered, and the supernatant was centrifuged for another 10 minutes at 17,000 g.
Ammonium sulfate was added to 35 percent saturation to the obtained supernatant. The mixture was stirred for 45 minutes and then centrifuged for 10 minutes at 17,000 g. Buffer solution B (100 mM Tris-HCl (pH 7.5), 500 mM NaCl, 1 mM EDTA, 0.1 mM DTT, 10 percent glycerol, 10 mg/L pepstatin A, 10 mg/L leupeptin, 0.5 mM PMSF) was added to the obtained precipitate and dissolved. The solution was then centrifuged for 20 minutes at 40,000 g. The supernatant was dialyzed overnight against buffer C (100 mM Tris-HCl (pH 7.5), 500 mM NaCl, 1 mM EDTA, 0.1 mM DTT, 5 percent glycerol).
The dialyzed supernatant was passed through a […], applied to a monomeric avidin sepharose column, and washed with buffer B. The ACC was eluted with buffer B containing 2 mM d-biotin.
(2 Measurement of ACC Inhibition Activity)
The compounds synthesized in the above-described embodiments were dissolved in DMSO and charged to glass vials. 250 μL of ACC-containing reaction solution (40 mM Tris-HCl (pH 7.5), 40 mM MgCl2, 40 mM sodium citrate, and 2 mM DTT) was added. The mixture was heated for 30 minutes at 37° C. in a thermostatic chamber and then cooled with ice. To reaction solution 1 was added 250 μL of reaction solution 2 containing [14C]—NaHCO3 (40 mM Tris-HCl (pH 7.5), 2 mM DTT, 8 mM ATP, 0.5 mM acetyl CoA) and the mixture was heated for 10 minutes at 37° C. 100 μL of 1N HCl was added to stop the reaction. Water in the reaction solution was removed with a centrifugal evaporator, a scintillator was added, the solid component was dissolved, and the 14C radioactivity was measured with a liquid scintillation counter. The ACC inhibition activity of each compound was calculated from the following equation and converted to the ACC inhibition activity rate (%) at 1 μM.
ACC inhibition rate (%)=(1−(a−c)/(b−c))×100 a. Radioactivity when test drug added b: Radioactivity when test drug not added c: Blank* *Reaction solution 1 to which 100 μL of 1N HCl was added before mixing reaction solution 1 and reaction solution 2

[1] abbreviates: ACC inhibition activity rate at 1 μM, Table 4-IV, Mode 4 benzenediamine compounds (numbers = x-IV).
Setting [2] is: ACC inhibition activity rate at 1 μM, Table 4-A, further compounds of Modes 2 and 3.
[3] abbreviates: ACC inhibition activity rate at 1 μM, Table 2-III, Mode 3 acetylene/oxadiazole/thiazole compounds (numbers = x-III).
The mark [4] stands for this setting: ACC inhibition activity rate at 1 μM, Table 3-I, Mode 1 quinoline compounds (numbers = x-I).

A word on the inhibition: it is the share of the control response that was lost under treatment. In the case of `CC(C)CCN(C)c1ccc(-c2noc(-c3cccc(C(=O)NS(=O)(=O)c4cn(C)cn4)c3)n2)cc1NCc1ccc(OCCO)cc1` [Compound 137-IV], under setting [1], the inhibition at 1 µM stood at 79%. Regarding `O=C(NS(=O)(=O)c1cccc(-c2nc(-c3ccc(-c4csc(-c5ccccc5)n4)cc3)no2)c1)c1cccnc1` [Compound 145-III], the inhibition at 1 µM under setting [2] turned out to be 84%. Turning to `CC(C)CCN(C)c1ccc(-c2noc(-c3cccc(C(=O)NS(=O)(=O)c4cccc(C(=O)O)c4)c3)n2)cc1NCc1ccc(OCCO)cc1` [Compound 134-IV], the inhibition at 1 µM under setting [1] is 89%. Take `CC(C)c1ccc(S(=O)(=O)NC(=O)c2cccc(-c3nc(-c4ccc(-c5csc(-c6ccc(C(F)(F)F)cc6)n5)cc4)no3)c2)cc1` [compound 106]: under setting [3], the inhibition at 1 µM came to 97%. The same measure, in the same setting: then `O=C(O)CNC(=O)Nc1ccc(C#Cc2cccc(C(F)(F)F)c2)cc1` [compound 65], with 64%.

For `O=C(NS(=O)(=O)c1ccccc1)c1cccc(-c2noc(-c3ccc(NC4CC4)c([N+](=O)[O-])c3)n2)c1` [compound 52], the inhibition at 1 µM under setting [1] stood at 59%. Still for that read-out and setting: then `CCCCCC(=O)NS(=O)(=O)c1ccccc1NC(=O)c1ccc(Nc2ccc(C(F)(F)F)cc2)c(NC(=O)c2ccncc2)c1` [compound 33], with 61%. For `CCCCCC(=O)NS(=O)(=O)c1ccccc1NC(=O)c1ccc2nc(-c3cccc(SC(F)(F)F)c3)ccc2c1` [compound 109], the inhibition at 1 µM under setting [4] stood at 61%. On to `O=C1C(c2ccccc2)=C(c2ccccc2)C(=O)N1c1cccc(C#Cc2cccc(C(F)(F)F)c2)c1` [compound 74], for which the inhibition at 1 µM under setting [3] was found to be 66%. With `CCCCCC(=O)NS(=O)(=O)c1ccccc1NC(=O)c1ccc(Nc2ccc(C(F)(F)F)cc2)c(NC(=O)C2CCCCC2)c1` [compound 31], under setting [1], the inhibition at 1 µM was 72%. On the same count and under the same terms, then `Cc1ccccc1S(=O)(=O)NC(=O)c1cccc(-c2nc(-c3ccc(N(C)CCC(C)C)c(N4Cc5ccccc5C4=O)c3)no2)c1` [compound 127], with 92%. Regarding `CC(C)CCN(C)c1ccc(-c2noc(-c3cccc(C(=O)NS(=O)(=O)c4cccc(C(=O)O)c4)c3)n2)cc1N(C)Cc1ccc(OCCO)cc1` [Compound 139-IV], the inhibition at 1 µM under setting [1] amounted to 100%. In the case of `Cc1ccccc1S(=O)(=O)NC(=O)CC(NC(=O)c1ccc(N(C)CCC(C)C)c(NCc2ccccc2)c1)C1CCCCC1` (stereo not drawn) [compound 82], the inhibition at 1 µM under setting [1] came out at 56%. With `CCOP(=O)(/C=C/c1ccc(CNc2cc(-c3noc(-c4cccc(C(=O)NS(=O)(=O)c5ccccc5C)c4)n3)ccc2N(C)CCC(C)C)cc1)OCC` [Compound 140-IV], the inhibition at 1 µM stood at 100%. Take `CCCCCC(=O)NS(=O)(=O)c1ccccc1NC(=O)c1ccc2nc(-c3cccc(C(F)(F)F)c3F)ccc2c1` [compound 110]: under setting [4], the inhibition at 1 µM was 50%. For `CC(C)CCN(C)c1ccc(C(=O)NC(CC(=O)NS(=O)(=O)c2cn(C)cn2)C2CCCCC2)cc1NCC1CCCCC1` (stereo not drawn) [Compound 161-IV], the inhibition at 1 µM under setting [1] came to 71%. On the same count and under the same terms, then `Cc1ccccc1S(=O)(=O)NC(=O)CC(NC(=O)c1ccc(N(C)CCC(C)C)c(NCc2ccccc2O)c1)C1CCCCC1` (stereo not drawn) [compound 122], with 67%.

Take `CC(C)c1ccc(S(=O)(=O)NC(=O)CC(NC(=O)c2ccc3nc(-c4cc(C(F)(F)F)cc(C(F)(F)F)c4)ccc3c2)c2ccccc2)cc1` (stereo not drawn) [compound 49]: the inhibition at 1 µM under setting [4] came to 62%. The same measure, in the same setting: then `CCCCCC(=O)NS(=O)(=O)c1ccccc1NC(=O)c1ccc2nc(-c3cc(C(F)(F)F)cc(C(F)(F)F)c3)c(CCCl)cc2c1` [compound 103], with 50%. For `CC(C)CCN(C)c1ccc(C(=O)NC(CC(=O)NS(=O)(=O)c2ccccc2)C2CCCCC2)cc1NC1CCC1` (stereo not drawn) [compound 85], the inhibition at 1 µM under setting [1] came to 59%.

Turning to `CC(C)CCN(C)c1ccc(-c2noc(-c3cccc(C(=O)NS(=O)(=O)c4ccccc4)c3)n2)cc1NCc1nccn1C` [compound 60], the inhibition at 1 µM under setting [1] was 61%.

In the case of `CCCCS(=O)(=O)NC(=O)[C@@H]1C[C@H]2C[C@H](C2(C)C)[C@@]1(C)NC(=O)c1ccc2nc(-c3cc(C(F)(F)F)cc(C(F)(F)F)c3)ccc2c1` [compound 59], the inhibition at 1 µM under setting [4] is 74%. As for `CC(C)CCN(C)c1ccc(C(=O)NC(CC(=O)NS(=O)(=O)c2ccccc2)C2CCCCC2)cc1NCc1cccs1` (stereo not drawn) [compound 91], the inhibition at 1 µM under setting [1] came out at 70%.

Turning to `CCCCCC(=O)NS(=O)(=O)c1ccccc1NC(=O)c1ccc(Nc2ccc(C(F)(F)F)cc2)c(NC(=O)OCc2ccccc2)c1` [compound 35], the inhibition at 1 µM under setting [1] turned out to be 91%.

For the compound `CCCCCC(=O)NS(=O)(=O)c1ccccc1NC(=O)c1ccc(NCCC(C)C)c(NC(=O)c2cc(C(F)(F)F)cc(C(F)(F)F)c2)c1` [compound 20], the inhibition at 1 µM under setting [1] came to 85%. The same measure, in the same setting: then `CC(C)CCN(C)c1ccc(-c2noc(-c3cccc(C(=O)NS(=O)(=O)c4ccccc4)c3)n2)cc1NCc1ccc(OCCO)cc1` [compound 113], with 97%. As to `CCCCS(=O)(=O)NC(=O)CC1(NC(=O)c2ccc3nc(-c4cc(C(F)(F)F)cc(C(F)(F)F)c4)ccc3c2)CCCCC1` [compound 54], under setting [4], the inhibition at 1 µM was determined as 45%. As to `Cc1ccccc1S(=O)(=O)NC(=O)CC(NC(=O)c1ccc(N(C)CCC(C)C)c(N(C)CCc2ccccc2)c1)C1CCCCC1` (stereo not drawn) [Compound 153-IV], under setting [1], the inhibition at 1 µM amounted to 86%. For `O=C1c2ccccc2C(=O)N1c1cccc(C#Cc2cccc(C(F)(F)F)c2)c1` [compound 18], the inhibition at 1 µM under setting [3] is 60%. `COC(=O)c1ccc(S(=O)(=O)NC(=O)c2cccc(-c3nc(-c4ccc(-c5csc(-c6ccccc6)n5)cc4)no3)c2)cc1` [Compound 140-III]: the inhibition at 1 µM under setting [2] is 92%. `Cc1ccccc1S(=O)(=O)NC(=O)c1cccc(-c2nc(-c3ccc(N(C)CCC(C)C)c(NCc4ccccc4)c3)no2)c1` [compound 103]: the inhibition at 1 µM under setting [1] was determined as 100%.

As to `CCCCCC(=O)NS(=O)(=O)c1ccccc1NC(=O)c1ccc(Nc2ccc(C(F)(F)F)cc2)c(NC(=O)c2cc(C(F)(F)F)cc(C(F)(F)F)c2)c1` [compound 16], the inhibition at 1 µM under setting [1] came to 86%. Take `CC(C)c1ccc(S(=O)(=O)NC(=O)c2ccc(-c3csc(-c4ccc(C#Cc5cccc(C(F)(F)F)c5)cc4)n3)cc2)cc1` [compound 105]: under setting [3], the inhibition at 1 µM stood at 99%. On to `O=C(O)c1ccc(-c2csc(-c3ccc(C#Cc4cccc(C(F)(F)F)c4)cc3)n2)cc1` [compound 36], for which the inhibition at 1 µM under setting [3] came to 54%. The same measure, in the same setting: then `O=C(O)c1ccccc1C(=O)Nc1ccc(C#Cc2cccc(C(F)(F)F)c2)cc1` [compound 10], with 61%. With `Cc1ccccc1S(=O)(=O)NC(=O)[C@@H]1CCCC[C@@H]1NC(=O)c1ccc(N(C)CCC(C)C)c(NCc2ccccc2)c1` [Compound 146-IV], the inhibition at 1 µM under setting [1] was determined as 72%. Consider `O=C(Nc1ccccc1C(=O)O)c1ccc2nc(-c3cc(C(F)(F)F)cc(C(F)(F)F)c3)ccc2c1` [compound 3], for which the inhibition at 1 µM under setting [4] is 53%. Same read-out and setting: then `CC(C)(C)c1ccc(C(=O)NS(=O)(=O)c2ccccc2NC(=O)c2ccc3nc(-c4cc(C(F)(F)F)cc(C(F)(F)F)c4)ccc3c2)cc1` [compound 83], with 98%.

Turning to `CC(C)CCN(C)c1ccc(-c2noc(-c3cccc(C(=O)NS(=O)(=O)c4ccccc4)c3)n2)cc1NCc1ccccc1` [compound 45], the inhibition at 1 µM under setting [1] is 100%.

`CN(c1ccc(C(=O)NC(CC(=O)NS(=O)(=O)c2ccccc2)C2CCCCC2)cc1NCCOCc1ccccc1)C1CC1` (stereo not drawn) [Compound 158-IV]: under setting [1], the inhibition at 1 µM is 65%.

For `CC(C)CCN(C)c1ccc(-c2noc(-c3cccc(C(=O)NS(=O)(=O)c4ccccc4)c3)n2)cc1NCc1ccc2ccccc2c1` [compound 102], the inhibition at 1 µM under setting [1] worked out at 100%. On to `CC(C)CCN(C)c1ccc(-c2noc(-c3cccc(C(=O)NS(=O)(=O)c4cn(C)cn4)c3)n2)cc1N(C)Cc1ccc(OCCO)cc1` [Compound 142-IV], for which, under setting [1], the inhibition at 1 µM was found to be 93%.
